Laboratory results: paper PMC3701632, “Kinetic Features of L,D-Transpeptidase Inactivation Critical for β-Lactam Antibacterial Activity” (PLoS ONE, 2013)

Assays:
[1] = molecular target: T1, Ldtfm catalytic domain (LdtfmC442A) (Enterococcus faecium, UniProt Q3Y185, C442A); experiment: biochemical
T1 construct: gene HMPREF0351_12555

[2] = tested on: CC1(C)S[C@@H]2[C@H](NC(=O)[C@H](N)c3ccccc3)C(=O)N2[C@H]1C(=O)O; experiment: purified protein; assay type: biochemical, Enterococcus faecium; conditions: covalent acylenzyme turnover, saturable step assigned to oxyanion formation, 5 µM enzyme, 100 mM sodium phosphate pH 6.0, 20°C
[3] = tested on: CO/N=C(\C(=O)N[C@@H]1C(=O)N2C(C(=O)O)=C(CSc3nc(=O)c(=O)[nH]n3C)CS[C@H]12)c1csc(N)n1; experiment: purified protein; assay type: biochemical, Enterococcus faecium; conditions: covalent acylenzyme turnover, saturable step assigned to oxyanion formation, 5 µM enzyme, 100 mM sodium phosphate pH 6.0, 20°C

T1 sequence (Q3Y185 341-466 C442A): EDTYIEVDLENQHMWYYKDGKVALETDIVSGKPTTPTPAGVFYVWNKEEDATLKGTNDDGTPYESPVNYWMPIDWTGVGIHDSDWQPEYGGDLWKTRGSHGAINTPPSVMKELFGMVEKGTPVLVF

Molecule | Kd [1] | K0.5 [2] | kcat [2] | kcat [3]
CC1(C)S[C@@H]2[C@H](NC(=O)[C@H](N)c3ccccc3)C(=O)N2[C@H]1C(=O)O [ampicillin] | 79 mM | – | – | –
CO/N=C(\C(=O)N[C@@H]1C(=O)N2C(C(=O)O)=C(CSc3nc(=O)c(=O)[nH]n3C)CS[C@H]12)c1csc(N)n1 [ceftriaxone] | 44 mM | – | – | –
C[C@@H](O)[C@H]1C(=O)N2C(C(=O)O)=C(S[C@@H]3CN[C@H](C(=O)Nc4cccc(C(=O)O)c4)C3)[C@H](C)[C@H]12 [ertapenem] | 50 mM | – | – | –
Ldtfm (Enterococcus faecium DO) | – | 370 ± 30 µM | 0.003 ± 0.00017 s⁻¹ | 0.00045 ± 5e-05 s⁻¹
